Assays:
[1] = system: broad-leaf weeds and grass weeds; test: General screening of herbicidal activity in greenhouse; format: in vivo; settings: 1000 g a.i./hm^2;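 note: 0 means no visible effect and 100 means all weeds dead or not emerged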
In short: (§1)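 Pre- and post-emergence greenhouse test. Track sprayer, 500 L/hm^2, 1.95 kg/cm^2; EC formulation. Post-em at 2–3 leaves (grass), 2–4 leaves (broad-leaf). Readout: visual % inhibition.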

Cyperus glomeratus L. = test: Weed spectrum study in greenhouse; format: in vivo
Excerpt: Seeds of monocotyledonous and dicotyledonous weeds were sown in nutrition soil in paper pot (7 cm diameter), covered with soil in 1 cm and grown in the greenhouse under good growth conditions (temperature, atmospheric humidity, water supply). The compounds of the present invention as emulsifiable concentrate, were applied in pre-emergence and post-emergence treatment by track sprayer (Engineer Research Ltd., pressure 1.95 kg/cm^2, volume 500 L/hm^2, track speed 1.48 km/h). Pre-emergence treatment was conducted after seeding 24 hours and post-emergence treatment was done when the respective weeds reached predetermined leaf stage ([…]), the state of growth of the respective weeds were visually observed to determine the growth inhibition rate (%) in accordance with the following evaluation standard.
(§2) Growth inhibition rate (%): 0=no discernible action: 100=all weeds dead or not emerged.
(§3) The method is as example 18.

[2] = system: Amaranthus retroflexus L.; test: Weed spectrum study in greenhouse; format: in vivo
Excerpt: Seeds of monocotyledonous and dicotyledonous weeds were sown in nutrition soil in paper pot (7 cm diameter), covered with soil in 1 cm and grown in the greenhouse under good growth conditions (temperature, atmospheric humidity, water supply). The compounds of the present invention as emulsifiable concentrate, were applied in pre-emergence and post-emergence treatment by track sprayer (Engineer Research Ltd., pressure 1.95 kg/cm^2, volume 500 L/hm^2, track speed 1.48 km/h). Pre-emergence treatment was conducted after seeding 24 hours and post-emergence treatment was done when the respective weeds reached predetermined leaf stage (grass weed 2- to 3-leaf stage, […]), the state of growth of the respective weeds were visually observed to determine the growth inhibition rate (%) in accordance with the following evaluation standard.
as §2, §3

weeds = test: Field trial, weed control in orchard (non-cultivated land); format: in vivo
Description: (§4) The field trial was conducted in an orchard located at Liaoyang city, Liaoning province, China; the orchard planted mainly apple trees and almond trees, plum trees and pear trees as well, weeding control were conducted three times one year by application of paraquat. Weeds were distributed uniformity and moderate density, mainly of broad-leaf weeds including Conyza canadensis (L.)Cronq., Sonchus brachyotus DC., Polygonum aviculare L., Humulus scandens (Lour.) Merr., Ixeridium sonchifolium (Maxim.) Shih, Galium aparine L. var. tenerum Gren. et (Godr.) Rebb., Rumex japonicus Houtt. and Metaplexis japonica (Thunb.) Makino, partly of grass weed was Digitaria sanguinalis (L.) Scop., average height range was between 30 and 40 cm. sprayer was knapsack hand-operated sprayer(AGROLEX HD400) produced by AGROLEx PTE Ltd., spray volume was 675 L/hm^2, processing date was Jul. 3, 2015. On the 15th day after application, weeds were visually observed to determine the growth inhibition rate (%).

broad-leaf weeds = test: as above; format: in vivo
Description: as §4

Zinnia elegans Jacq. = test: Bioassay of herbicidal activity in greenhouse (further screening); format: in vivo
In short: as §1

[3] = system: Setaria glauca (L.) Beauv.; test: as above; format: in vivo
In short: as §1

[4] = system: Echinochloa crus-galli (L.) Beauv.; test: as above; format: in vivo
In short: as §1

[5] = system: Abutilon theophrasti Medic.; test: as above; format: in vivo
In short: as §1

[6] = system: Digitaria sanguinalis (L.); test: Weed spectrum study in greenhouse; format: in vivo
Excerpt: Seeds of monocotyledonous and dicotyledonous weeds were sown in nutrition soil in paper pot (7 cm diameter), covered with soil in 1 cm and grown in the greenhouse under good growth conditions (temperature, atmospheric humidity, water supply). The compounds of the present invention as emulsifiable concentrate, were applied in pre-emergence and post-emergence treatment by track sprayer (Engineer Research Ltd., pressure 1.95 kg/cm^2, volume 500 L/hm^2, track speed 1.48 km/h). Pre-emergence treatment was conducted after seeding 24 hours and post-emergence treatment was done when the respective weeds reached predetermined leaf stage ([…], broad-leaf weed 2- to 4-leaf stage), the state of growth of the respective weeds were visually observed to determine the growth inhibition rate (%) in accordance with the following evaluation standard.
as §2, §3

[7] = system: Arthraxon hispidus (Thunb.) Makino; test: Weed spectrum study in greenhouse; format: in vivo
Excerpt: (§5) Seeds of monocotyledonous and dicotyledonous weeds were sown in nutrition soil in paper pot (7 cm diameter), covered with soil in 1 cm and grown in the greenhouse under good growth conditions (temperature, atmospheric humidity, water supply). The compounds of the present invention as emulsifiable concentrate, were applied in pre-emergence and post-emergence treatment by track sprayer (Engineer Research Ltd., pressure 1.95 kg/cm^2, volume 500 L/hm^2, track speed 1.48 km/h). Pre-emergence treatment was conducted after seeding 24 hours and post-emergence treatment was done when the respective weeds reached predetermined leaf stage (grass weed 2- to 3-leaf stage, broad-leaf weed 2- to 4-leaf stage), the state of growth of the respective weeds were visually observed to determine the growth inhibition rate (%) in accordance with the following evaluation standard.
as §2, §3

Cyperus difformis L. = test: Weed spectrum study in greenhouse; format: in vivo
Excerpt: as §5, §2, §3

grass weed = test: Field trial, weed control in orchard (non-cultivated land); format: in vivo, Digitaria sanguinalis (L.) Scop.
Description: as §4

[8] = dose 60 g a.i./hm^2, 15th day after application
[9] = dose 120 g a.i./hm^2, 15th day after application
[10] = dose 180 g a.i./hm^2, 15th day after application
[11] = dose 240 g a.i./hm^2, 15th day after application
[12] = dose 300 g a.i./hm^2, 15th day after application
[13] = pre-emergence, dose 600 g a.i./hm^2

In the case of CCOC(=O)C1(C)CC(c2cc(-n3c(=O)cc(C(F)(F)F)n(C)c3=O)c(F)cc2Cl)=NO1 (stereo not drawn) [Compound 6], the “pre-emergence and post-emergence herbicidal activity against broad-leaf weeds and grass weeds” value [1] is reported as “good”, the “Growth inhibition rate, Cyperus glomeratus L. (5-leaf stage)” value (“Growth inhibition rate … (5-leaf stage)” below) (Cyperus glomeratus L.; dose 7.5 g a.i./hm^2) is reported as 80% and the “Growth inhibition rate … (5-leaf stage)” value (Cyperus glomeratus L.; dose 15 g a.i./hm^2) is reported as 80%. For the same compound, the “Growth inhibition rate … (5-leaf stage)” value (Cyperus glomeratus L.; dose 30 g a.i./hm^2) was 90%, the “Growth inhibition rate … (5-leaf stage)” value (Cyperus glomeratus L.; dose 60 g a.i./hm^2) was 100% and the “Growth inhibition rate … (5-leaf stage)” value (Cyperus glomeratus L.; dose 120 g a.i./hm^2) was 100%. For the same compound, the “Growth inhibition rate, Amaranthus retroflexus L. (height 10-15 cm)” value (“Growth inhibition rate … (height 10-15 cm)” for short) ([2]; dose 7.5 g a.i./hm^2) was 90%, the “Growth inhibition rate … (height 10-15 cm)” value ([2]; dose 15 g a.i./hm^2) was 98% and the “Growth inhibition rate … (height 10-15 cm)” value ([2]; dose 30 g a.i./hm^2) was 100%. The “Growth inhibition rate … (height 10-15 cm)” value ([2]; dose 60 g a.i./hm^2) was 100%, the “Growth inhibition rate … (height 10-15 cm)” value ([2]; dose 120 g a.i./hm^2) was 100% and the “Total growth inhibition rate (%) of weeds” value (weeds; [8]) was 81.7%. For the same compound, the “Total growth inhibition rate (%) of weeds” value (weeds; [9]) was 91.7%, the “Total growth inhibition rate (%) of weeds” value (weeds; [10]) was 91.7% and the “Total growth inhibition rate (%) of weeds” value (weeds; [11]) was 93.3%. For the same compound, the “Total growth inhibition rate (%) of weeds” value (weeds; [12]) was 98.7%, the “Growth inhibition rate (%) of broad-leaf weeds” value (broad-leaf weeds; [8]) was 85.0% and the “Growth inhibition rate (%) of broad-leaf weeds” value (broad-leaf weeds; [9]) was 93.3%. The “Growth inhibition rate (%) of broad-leaf weeds” value (broad-leaf weeds; [10]) was 94.3%, the “Growth inhibition rate (%) of broad-leaf weeds” value (broad-leaf weeds; [11]) was 97.0% and the “Growth inhibition rate (%) of broad-leaf weeds” value (broad-leaf weeds; [12]) was 92.7%. For the same compound, the “Growth inhibition rate, Post-emergence treatment, Zinnia elegans Jacq.” value (Zinnia elegans Jacq.; dose 7.5 g a.i./hm^2) was 95%, the “Growth inhibition rate, Post-emergence treatment, Zinnia elegans Jacq.” value (Zinnia elegans Jacq.; dose 15 g a.i./hm^2) was 98% and the “Growth inhibition rate, Post-emergence treatment, Zinnia elegans Jacq.” value (Zinnia elegans Jacq.; dose 30.0 g a.i./hm^2) was 100%. The “Growth inhibition rate, Post-emergence treatment, Zinnia elegans Jacq.” value (Zinnia elegans Jacq.; dose 60.0 g a.i./hm^2) was 100%, the “Growth inhibition rate, Post-emergence treatment, Zinnia elegans Jacq.” value (Zinnia elegans Jacq.; dose 120.0 g a.i./hm^2) was 100% and the “Growth inhibition rate, Post-emergence treatment, Zinnia elegans Jacq.” value (Zinnia elegans Jacq.; dose 600 g a.i./hm^2) was 100%. The “Growth inhibition rate, Pre-emergence treatment, Zinnia elegans Jacq.” value (Zinnia elegans Jacq.; [13]) was 55%, the “Growth inhibition rate, Post-emergence treatment, Setaria glauca (L.) Beauv.” value ([3]; dose 7.5 g a.i./hm^2) was 85% and the “Growth inhibition rate, Post-emergence treatment, Setaria glauca (L.) Beauv.” value ([3]; dose 15 g a.i./hm^2) was 98%. The “Growth inhibition rate, Post-emergence treatment, Setaria glauca (L.) Beauv.” value ([3]; dose 30.0 g a.i./hm^2) was 95%, the “Growth inhibition rate, Post-emergence treatment, Setaria glauca (L.) Beauv.” value ([3]; dose 60.0 g a.i./hm^2) was 100% and the “Growth inhibition rate, Post-emergence treatment, Setaria glauca (L.) Beauv.” value ([3]; dose 120.0 g a.i./hm^2) was 100%. The “Growth inhibition rate, Post-emergence treatment, Setaria glauca (L.) Beauv.” value ([3]; dose 600 g a.i./hm^2) was 100%, the “Growth inhibition rate, Pre-emergence treatment, Setaria glauca (L.) Beauv.” value [3, 13] was 55% and the “Growth inhibition rate, Post-emergence treatment, Echinochloa crus-galli (L.) Beauv.” value ([4]; dose 7.5 g a.i./hm^2) was 70%. For the same compound, the “Growth inhibition rate, Post-emergence treatment, Echinochloa crus-galli (L.) Beauv.” value ([4]; dose 15 g a.i./hm^2) was 98%, the “Growth inhibition rate, Post-emergence treatment, Echinochloa crus-galli (L.) Beauv.” value ([4]; dose 30.0 g a.i./hm^2) was 98% and the “Growth inhibition rate, Post-emergence treatment, Echinochloa crus-galli (L.) Beauv.” value ([4]; dose 60.0 g a.i./hm^2) was 100%. The “Growth inhibition rate, Post-emergence treatment, Echinochloa crus-galli (L.) Beauv.” value ([4]; dose 120.0 g a.i./hm^2) was 100%, the “Growth inhibition rate, Post-emergence treatment, Echinochloa crus-galli (L.) Beauv.” value ([4]; dose 600 g a.i./hm^2) was 100% and the “Growth inhibition rate, Pre-emergence treatment, Echinochloa crus-galli (L.) Beauv.” value [4, 13] was 70%. For the same compound, the “Growth inhibition rate, Post-emergence treatment, Abutilon theophrasti Medic.” value ([5]; dose 7.5 g a.i./hm^2) was 100%, the “Growth inhibition rate, Post-emergence treatment, Abutilon theophrasti Medic.” value ([5]; dose 15 g a.i./hm^2) was 100% and the “Growth inhibition rate, Post-emergence treatment, Abutilon theophrasti Medic.” value ([5]; dose 30.0 g a.i./hm^2) was 100%. For the same compound, the “Growth inhibition rate, Post-emergence treatment, Abutilon theophrasti Medic.” value ([5]; dose 60.0 g a.i./hm^2) was 100%, the “Growth inhibition rate, Post-emergence treatment, Abutilon theophrasti Medic.” value ([5]; dose 120.0 g a.i./hm^2) was 100% and the “Growth inhibition rate, Post-emergence treatment, Abutilon theophrasti Medic.” value ([5]; dose 600 g a.i./hm^2) was 100%. The “Growth inhibition rate, Pre-emergence treatment, Abutilon theophrasti Medic.” value [5, 13] was 100%, the “Growth inhibition rate, Digitaria sanguinalis (L.) (4,5-leaf stage)” value (“Growth inhibition rate … (L.) (4,5-leaf stage)” for short) ([6]; dose 7.5 g a.i./hm^2) was 80% and the “Growth inhibition rate … (L.) (4,5-leaf stage)” value ([6]; dose 15 g a.i./hm^2) was 90%. For the same compound, the “Growth inhibition rate … (L.) (4,5-leaf stage)” value ([6]; dose 30 g a.i./hm^2) was 100%, the “Growth inhibition rate … (L.) (4,5-leaf stage)” value ([6]; dose 60 g a.i./hm^2) was 100% and the “Growth inhibition rate … (L.) (4,5-leaf stage)” value ([6]; dose 120 g a.i./hm^2) was 100%. The “Growth inhibition rate, Arthraxon hispidus (Thunb.) Makino (3-leaf stage)” value (“Growth inhibition rate … (3-leaf stage)” for short) ([7]; dose 7.5 g a.i./hm^2) was 60%, the “Growth inhibition rate … (3-leaf stage)” value ([7]; dose 15 g a.i./hm^2) was 85% and the “Growth inhibition rate … (3-leaf stage)” value ([7]; dose 30 g a.i./hm^2) was 90%. The “Growth inhibition rate … (3-leaf stage)” value ([7]; dose 60 g a.i./hm^2) was 100%, the “Growth inhibition rate … (3-leaf stage)” value ([7]; dose 120 g a.i./hm^2) was 100% and the “Growth inhibition rate, Cyperus difformis L. (4,5-leaf stage)” value (Cyperus difformis L.; dose 7.5 g a.i./hm^2) was 30%. For the same compound, the “Growth inhibition rate, Cyperus difformis L. (4,5-leaf stage)” value (Cyperus difformis L.; dose 15 g a.i./hm^2) was 60%, the “Growth inhibition rate, Cyperus difformis L. (4,5-leaf stage)” value (Cyperus difformis L.; dose 30 g a.i./hm^2) was 90% and the “Growth inhibition rate, Cyperus difformis L. (4,5-leaf stage)” value (Cyperus difformis L.; dose 60 g a.i./hm^2) was 95%. For the same compound, the “Growth inhibition rate, Cyperus difformis L. (4,5-leaf stage)” value (Cyperus difformis L.; dose 120 g a.i./hm^2) was 100%, the “Growth inhibition rate (%) of grass weed” value (grass weed; [8]) was 61.7% and the “Growth inhibition rate (%) of grass weed” value (grass weed; [9]) was 71.7%. For the same compound, the “Growth inhibition rate (%) of grass weed” value (grass weed; [10]) was 83.3%, the “Growth inhibition rate (%) of grass weed” value (grass weed; [11]) was 88.3% and the “Growth inhibition rate (%) of grass weed” value (grass weed; [12]) was 94.3%.

Source: patent US10550111B2, “Pyrimidine urea compound containing isoxazolines and use thereof” (SHENYANG SINOCHEM AGROCHEMICALS R&D CO., LTD, priority 2014, dated 2020)
